{"source": "patent US20080269526A1", "about": "“METHODS OF MAKING AN […]” (SAIC […], IP B.V., priority 2004, published 2008)", "assay": "Solubility of K Rimar in water", "conditions": "20° C. (RT)", "text": "The solubility of the potassium salt of perfluorobutanesulfonic acid, K Rimar, is described in Table 2."}
{"molecule": "O=S(=O)([O-])C(F)(F)C(F)(F)C(F)(F)C(F)(F)F.[K+]", "note": "[K Rimar, Perfluorobutane sulfonate, potassium salt]", "values": [{"measurement": "Concentration at which K Rimar is soluble", "result": "less than 0.5 g"}]}
